Earlier results on one molecule are cited in patent US9775900B2, “Photodynamic diagnosis, formulations usable as photosensitizers for this purpose, method for the production and use thereof” (Sanochemia Pharmazeutika AG, priority 2015, dated 2017).

The conditions of this data set: pure hypericin.

As to `Cc1cc(O)c2c(=O)c3c(O)cc(O)c4c5c(O)cc(O)c6c(=O)c7c(O)cc(C)c8c1c2c(c34)c(c78)c65` [hypericin, 1,3,4,6,8,13-hexahydroxy-10,11-dimethylphenanthro (1,10,9,8-opqra) perylene-7,14-dione], the solubility in water entry is “water-insoluble”.
